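Following 48 hours of exposure in 96-well plates, responses at five concentrations were used to interpolate endpoints linearly. The concentration for 50% growth inhibition is given as GI50.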 Calls of active or inactive are those of the source. Cut-off read from the data, not from the text of the source: active = GI50 up to about 1.1 µM and inactive = higher.
Key:
Assay in all cases: growth of human tumour cells (NCI), 48 h
786-0 = tested on: 786-0
A549 = tested on: A549
ACHN = tested on: ACHN
BT-549 = tested on: BT-549
CAKI-1 = tested on: CAKI-1
CCRF-CEM = tested on: CCRF-CEM
COLO 205 = tested on: COLO 205
DU-145 = tested on: DU-145
EKVX = tested on: EKVX
HCC 2998 = tested on: HCC 2998
HCT-116 = tested on: HCT-116
HCT-15 = tested on: HCT-15
HL-60 = tested on: HL-60
HOP-62 = tested on: HOP-62
HT-29 = tested on: HT-29
Hs-578T = tested on: Hs-578T
IGROV-1 = tested on: IGROV-1
K562 = tested on: K562
KM12 = tested on: KM12
LOX IMVI = tested on: LOX IMVI
M14 = tested on: M14
MCF7 = tested on: MCF7
MDA-MB-231 = tested on: MDA-MB-231
MDA-MB-435 = tested on: MDA-MB-435
MDA-N = tested on: MDA-N
MOLT-4 = tested on: MOLT-4
Malme-3M = tested on: Malme-3M
NCI-H226 = tested on: NCI-H226
NCI-H23 = tested on: NCI-H23
NCI-H460 = tested on: NCI-H460
NCI-H522 = tested on: NCI-H522
NCI/ADR-RES = tested on: NCI/ADR-RES
OVCAR-3 = tested on: OVCAR-3
OVCAR-4 = tested on: OVCAR-4
OVCAR-5 = tested on: OVCAR-5
OVCAR-8 = tested on: OVCAR-8
PC-3 = tested on: PC-3
RPMI-8226 = tested on: RPMI-8226
RXF 393 = tested on: RXF 393
SF-268 = tested on: SF-268
SF-295 = tested on: SF-295
SF-539 = tested on: SF-539
SK-MEL-28 = tested on: SK-MEL-28
SK-MEL-2 = tested on: SK-MEL-2
SK-MEL-5 = tested on: SK-MEL-5
SK-OV-3 = tested on: SK-OV-3
SN12C = tested on: SN12C
SNB-19 = tested on: SNB-19
SNB-75 = tested on: SNB-75
SR = tested on: SR
SW-620 = tested on: SW-620
T47D = tested on: T47D
TK-10 = tested on: TK-10
U-251 = tested on: U-251
UACC-257 = tested on: UACC-257
UACC-62 = tested on: UACC-62
UO-31 = tested on: UO-31
A498 = tested on: A498
HOP-92 = tested on: HOP-92

Structure (SMILES): COc1ccc(N(C)S(=O)(=O)c2ccccc2)cc1
- GI50 (786-0): > 100 µM (inactive)
- GI50 (A549): > 100 µM (inactive)
- GI50 (ACHN): > 100 µM (inactive)
- GI50 (BT-549): > 100 µM (inactive)
- GI50 (CAKI-1): > 100 µM (inactive)
- GI50 (CCRF-CEM): > 100 µM (inactive)
- GI50 (COLO 205): > 100 µM (inactive)
- GI50 (DU-145): > 100 µM (inactive)
- GI50 (EKVX): > 100 µM (inactive)
- GI50 (HCC 2998): 56 µM (inactive)
- GI50 (HCT-116): > 100 µM (inactive)
- GI50 (HCT-15): > 100 µM
- GI50 (HL-60): > 100 µM (inactive)
- GI50 (HOP-62): > 100 µM (inactive)
- GI50 (HT-29): > 100 µM (inactive)
- GI50 (Hs-578T): > 100 µM (inactive)
- GI50 (IGROV-1): > 100 µM (inactive)
- GI50 (K562): 28.5 µM (inactive)
- GI50 (KM12): > 100 µM (inactive)
- GI50 (LOX IMVI): > 100 µM (inactive)
- GI50 (M14): > 100 µM (inactive)
- GI50 (MCF7): > 100 µM (inactive)
- GI50 (MDA-MB-231): > 100 µM (inactive)
- GI50 (MDA-MB-435): 59.2 µM (inactive)
- GI50 (MDA-N): > 100 µM (inactive)
- GI50 (MOLT-4): 29.4 µM (inactive)
- GI50 (Malme-3M): > 100 µM (inactive)
- GI50 (NCI-H226): > 100 µM (inactive)
- GI50 (NCI-H23): 67.1 µM (inactive)
- GI50 (NCI-H460): 94.8 µM (inactive)
- GI50 (NCI-H522): > 100 µM (inactive)
- GI50 (NCI/ADR-RES): > 100 µM (inactive)
- GI50 (OVCAR-3): > 100 µM (inactive)
- GI50 (OVCAR-4): > 100 µM (inactive)
- GI50 (OVCAR-5): > 100 µM (inactive)
- GI50 (OVCAR-8): > 100 µM (inactive)
- GI50 (PC-3): 72.1 µM (inactive)
- GI50 (RPMI-8226): 86.9 µM (inactive)
- GI50 (RXF 393): > 100 µM (inactive)
- GI50 (SF-268): > 100 µM (inactive)
- GI50 (SF-295): > 100 µM (inactive)
- GI50 (SF-539): > 100 µM (inactive)
- GI50 (SK-MEL-28): > 100 µM (inactive)
- GI50 (SK-MEL-2): > 100 µM (inactive)
- GI50 (SK-MEL-5): 61.8 µM (inactive)
- GI50 (SK-OV-3): > 100 µM (inactive)
- GI50 (SN12C): > 100 µM (inactive)
- GI50 (SNB-19): > 100 µM (inactive)
- GI50 (SNB-75): > 100 µM (inactive)
- GI50 (SR): 87.9 µM (inactive)
- GI50 (SW-620): > 100 µM (inactive)
- GI50 (T47D): 53.1 µM (inactive)
- GI50 (TK-10): > 100 µM (inactive)
- GI50 (U-251): > 100 µM (inactive)
- GI50 (UACC-257): > 100 µM (inactive)
- GI50 (UACC-62): 75 µM (inactive)
- GI50 (UO-31): > 100 µM (inactive)

Structure (SMILES): OC(CCN1CCN(CCOC(c2ccccc2)c2ccccc2)CC1)c1ccccc1 (configuration not stated)
- GI50 (786-0): 18 µM (inactive)
- GI50 (A498): 2.4 µM (inactive)
- GI50 (A549): 44.6 µM (inactive)
- GI50 (ACHN): 27 µM (inactive)
- GI50 (BT-549): 23.8 µM (inactive)
- GI50 (CAKI-1): 32 µM (inactive)
- GI50 (CCRF-CEM): 27.7 µM (inactive)
- GI50 (COLO 205): 14.5 µM (inactive)
- GI50 (DU-145): 39.7 µM (inactive)
- GI50 (EKVX): 19.7 µM (inactive)
- GI50 (HCC 2998): 14.8 µM (inactive)
- GI50 (HCT-116): 17.5 µM (inactive)
- GI50 (HCT-15): 18.5 µM
- GI50 (HL-60): 16.7 µM (inactive)
- GI50 (HOP-62): 20.5 µM (inactive)
- GI50 (HOP-92): 22.5 µM (inactive)
- GI50 (HT-29): 15.9 µM (inactive)
- GI50 (Hs-578T): 21.1 µM (inactive)
- GI50 (IGROV-1): 23.1 µM (inactive)
- GI50 (KM12): 20.9 µM (inactive)
- GI50 (LOX IMVI): 19 µM (inactive)
- GI50 (M14): 18.1 µM (inactive)
- GI50 (MCF7): 22.4 µM (inactive)
- GI50 (MDA-MB-231): 15.9 µM (inactive)
- GI50 (MDA-MB-435): 18.5 µM (inactive)
- GI50 (MDA-N): 19.3 µM (inactive)
- GI50 (Malme-3M): 17.5 µM (inactive)
- GI50 (NCI-H226): 27.9 µM (inactive)
- GI50 (NCI-H23): 24.7 µM (inactive)
- GI50 (NCI-H460): 18.6 µM (inactive)
- GI50 (NCI-H522): 17.4 µM (inactive)
- GI50 (NCI/ADR-RES): 21.5 µM (inactive)
- GI50 (OVCAR-3): 25.6 µM (inactive)
- GI50 (OVCAR-4): 30.1 µM (inactive)
- GI50 (OVCAR-5): 33.2 µM (inactive)
- GI50 (OVCAR-8): 17.7 µM (inactive)
- GI50 (PC-3): 21.5 µM (inactive)
- GI50 (RXF 393): 19.9 µM (inactive)
- GI50 (SF-268): 22.8 µM (inactive)
- GI50 (SF-295): 20.1 µM (inactive)
- GI50 (SF-539): 20.1 µM (inactive)
- GI50 (SK-MEL-28): 17.9 µM (inactive)
- GI50 (SK-MEL-2): 15.8 µM (inactive)
- GI50 (SK-MEL-5): 15.3 µM (inactive)
- GI50 (SK-OV-3): 35.8 µM (inactive)
- GI50 (SN12C): 29.1 µM (inactive)
- GI50 (SNB-19): 32.4 µM (inactive)
- GI50 (SNB-75): 40.9 µM (inactive)
- GI50 (SW-620): 31.1 µM (inactive)
- GI50 (T47D): 17.2 µM (inactive)
- GI50 (TK-10): 22.3 µM (inactive)
- GI50 (U-251): 16.3 µM (inactive)
- GI50 (UACC-257): 17.9 µM (inactive)
- GI50 (UACC-62): 11.5 µM (inactive)
- GI50 (UO-31): 24.7 µM (inactive)
